The text below walks through data of patent publication US9181275B2, “Mercaptoamidine derivatives and methods of use” (AbbVie Inc., priority 2011, dated 2015).

The target of experiment [1] is native H3 receptors from rat cerebral cortices (Rattus norvegicus (Rat), UniProt Q9QYN8). The experiment can be described thus: H3 receptor competition binding with [3H]-N-α-methylhistamine, rat cerebral cortex membranes. As to conditions: [3H]-N-α-methylhistamine competition binding.
Protocol: Aliquots were frozen at −70° C. until needed.
Membrane preparations were incubated with [^3H]-N-α-methylhistamine (0.5-1.0 nM) in the presence or absence of increasing concentrations of ligands for H3 receptor competition binding. The binding incubations were conducted in a final volume of 0.5 mL TE buffer at 25° C. and were terminated after 30 minutes. Thioperamide (30 μM) was used to define non-specific binding. All binding reactions were terminated by filtration under vacuum onto polyethylenimine (0.3%) presoaked Unifilters (Perkin Elmer Life Sciences) or Whatman GF/B filters followed by three brief washes with 2 mL of ice-cold TE buffer. Bound radiolabel was determined by liquid scintillation counting. For all of the radioligand competition binding assays, IC50 values and Hill slopes were determined by Hill transformation of the data and pKi values were determined by the Cheng-Prusoff equation.
In experiment [2] the test system is locomotor stimulation induced by amphetamine. As to conditions: animals; Clapham J., et al. 1994; cited from earlier work.

Chain of native H3 receptors from rat cerebral cortices (Q9QYN8 whole entry): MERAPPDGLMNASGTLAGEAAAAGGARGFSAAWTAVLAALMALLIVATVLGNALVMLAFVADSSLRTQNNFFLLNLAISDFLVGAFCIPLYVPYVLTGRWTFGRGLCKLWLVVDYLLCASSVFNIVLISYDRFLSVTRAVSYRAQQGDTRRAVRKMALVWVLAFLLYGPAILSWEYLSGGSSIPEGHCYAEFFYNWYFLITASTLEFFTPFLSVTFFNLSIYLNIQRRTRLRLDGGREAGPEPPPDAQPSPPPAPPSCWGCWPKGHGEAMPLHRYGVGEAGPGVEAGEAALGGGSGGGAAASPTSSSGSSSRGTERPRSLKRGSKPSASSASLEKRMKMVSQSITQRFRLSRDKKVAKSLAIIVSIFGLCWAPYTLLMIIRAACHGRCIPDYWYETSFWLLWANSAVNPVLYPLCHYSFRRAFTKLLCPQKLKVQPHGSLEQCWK

As usually defined, the Ki is a dissociation constant, usually derived from enzyme kinetics or from competition with a known ligand. Consider `CC1=C(c2ccc(OCCCN3CCCCC3)cc2)SC2=NCc3ccccc3CN21` [Example 2, 3-methyl-2-[4-(3-piperidin-1-ylpropoxy)phenyl]-5,10-dihydro[1,3]thiazolo[3,2-b][2,4]benzodiazepine], for which, in experiment [1], the affinity corresponds to a Ki of 0.05 nM and the “rat cortex (pKi)” value was 10.3.
The matching figures for `CC1=C(c2ccc(OCCCN3CCC[C@H]3C)cc2)SC2=NCc3ccccc3CN21` [Example 3, 3-methyl-2-(4-{3-[(2R)-2-methylpyrrolidin-1-yl]propoxy}phenyl)-5,10-dihydro[1,3]thiazolo[3,2-b][2,4]benzodiazepine]: 0.02 nM and 10.7.
On to `CC1=C(c2ccc(OCCCN3CCOCC3)cc2)SC2=NCc3ccccc3CN21` [Example 4, 3-methyl-2-[4-(3-morpholin-4-ylpropoxy)phenyl]-5,10-dihydro[1,3]thiazolo[3,2-b][2,4]benzodiazepine], for which, in experiment [1], the affinity, expressed as Ki, was 0.324 nM and the “rat cortex (pKi)” value is reported as 9.49.
Regarding `S=C(NC1CCCCC1)N1CCC(c2cnc[nH]2)CC1` [thioperamide], in experiment [2], the “effect on amphetamine-induced locomotor stimulation” value is recorded as “suppresses the locomotor stimulation induced by amphetamine”.
